Values quoted from earlier work in patent US20030157061A1, “Combinations of a cyclooxygenase-2 selective inhibitor and a TNFalpha antagonist and therapeutic uses therefor” (Pharmacia Corporation, priority 2001, published 2003).

Tested on: fibroblast growth factor-induced corneal angiogenesis
Conditions: rats

SMILES: Cc1ccc(-c2cc(C(F)(F)F)nn2-c2ccc(S(N)(=O)=O)cc2)cc1 [Celecoxib, 4-[5-(4-methylphenyl)-3-(trifluoromethyl)-1H-pyrazol-1-yl]benzenesulfonamide]
- inhibition of fibroblast growth factor-induced corneal angiogenesis: potent inhibition
